Experimental findings from ChEMBL document CHEMBL1147038, “Structural basis for the specific inhibition of protein kinase G, a virulence factor of Mycobacterium tuberculosis” (Proc Natl Acad Sci U S A, 2007) are described below.

Usually inhibition stands for how much of the control response was suppressed.

Activity calls are given as the source filed them. The calls are words filed in the database; no cut-off is given here.

In experiment [1] the test system is Mycobacterium tuberculosis. Briefly: Inhibition of Mycobacterium tuberculosis PKnGdeltaN mutant at 63 uM by autoradiography.
Experiment [2] relates to Mycobacterium tuberculosis. Kind of experiment: Inhibition of Mycobacterium tuberculosis PKnG-I87S/A92S mutant at 25 uM by autoradiography.

Take `NC(=O)c1c(NC(=O)C2CC2)sc2c1CCCC2`: the outcome in experiment [1] was Active. This compound registered an inhibition in experiment [2] greater than 50%.
